The values below come from patent US12358886B2, “Heterocyclic compounds for use in the treatment of cancer” (Artios Pharma Limited, priority 2019, dated 2025).

By IC50 is commonly meant the concentration needed to halve the response being measured.

For the first assay, the target named is Polθ protein (amino acids 2-2590) (Homo sapiens, UniProt O75417). Description: Polθ full length enzyme potency assay (PicoGreen). To be noted: Polθ IC50 (nM), full length N-His, C-term FLAG tagged Polθ, PicoGreen fluorescence, 12 point concentration response.
Sequence of Polθ protein (amino acids 2-2590) (O75417 2-2590): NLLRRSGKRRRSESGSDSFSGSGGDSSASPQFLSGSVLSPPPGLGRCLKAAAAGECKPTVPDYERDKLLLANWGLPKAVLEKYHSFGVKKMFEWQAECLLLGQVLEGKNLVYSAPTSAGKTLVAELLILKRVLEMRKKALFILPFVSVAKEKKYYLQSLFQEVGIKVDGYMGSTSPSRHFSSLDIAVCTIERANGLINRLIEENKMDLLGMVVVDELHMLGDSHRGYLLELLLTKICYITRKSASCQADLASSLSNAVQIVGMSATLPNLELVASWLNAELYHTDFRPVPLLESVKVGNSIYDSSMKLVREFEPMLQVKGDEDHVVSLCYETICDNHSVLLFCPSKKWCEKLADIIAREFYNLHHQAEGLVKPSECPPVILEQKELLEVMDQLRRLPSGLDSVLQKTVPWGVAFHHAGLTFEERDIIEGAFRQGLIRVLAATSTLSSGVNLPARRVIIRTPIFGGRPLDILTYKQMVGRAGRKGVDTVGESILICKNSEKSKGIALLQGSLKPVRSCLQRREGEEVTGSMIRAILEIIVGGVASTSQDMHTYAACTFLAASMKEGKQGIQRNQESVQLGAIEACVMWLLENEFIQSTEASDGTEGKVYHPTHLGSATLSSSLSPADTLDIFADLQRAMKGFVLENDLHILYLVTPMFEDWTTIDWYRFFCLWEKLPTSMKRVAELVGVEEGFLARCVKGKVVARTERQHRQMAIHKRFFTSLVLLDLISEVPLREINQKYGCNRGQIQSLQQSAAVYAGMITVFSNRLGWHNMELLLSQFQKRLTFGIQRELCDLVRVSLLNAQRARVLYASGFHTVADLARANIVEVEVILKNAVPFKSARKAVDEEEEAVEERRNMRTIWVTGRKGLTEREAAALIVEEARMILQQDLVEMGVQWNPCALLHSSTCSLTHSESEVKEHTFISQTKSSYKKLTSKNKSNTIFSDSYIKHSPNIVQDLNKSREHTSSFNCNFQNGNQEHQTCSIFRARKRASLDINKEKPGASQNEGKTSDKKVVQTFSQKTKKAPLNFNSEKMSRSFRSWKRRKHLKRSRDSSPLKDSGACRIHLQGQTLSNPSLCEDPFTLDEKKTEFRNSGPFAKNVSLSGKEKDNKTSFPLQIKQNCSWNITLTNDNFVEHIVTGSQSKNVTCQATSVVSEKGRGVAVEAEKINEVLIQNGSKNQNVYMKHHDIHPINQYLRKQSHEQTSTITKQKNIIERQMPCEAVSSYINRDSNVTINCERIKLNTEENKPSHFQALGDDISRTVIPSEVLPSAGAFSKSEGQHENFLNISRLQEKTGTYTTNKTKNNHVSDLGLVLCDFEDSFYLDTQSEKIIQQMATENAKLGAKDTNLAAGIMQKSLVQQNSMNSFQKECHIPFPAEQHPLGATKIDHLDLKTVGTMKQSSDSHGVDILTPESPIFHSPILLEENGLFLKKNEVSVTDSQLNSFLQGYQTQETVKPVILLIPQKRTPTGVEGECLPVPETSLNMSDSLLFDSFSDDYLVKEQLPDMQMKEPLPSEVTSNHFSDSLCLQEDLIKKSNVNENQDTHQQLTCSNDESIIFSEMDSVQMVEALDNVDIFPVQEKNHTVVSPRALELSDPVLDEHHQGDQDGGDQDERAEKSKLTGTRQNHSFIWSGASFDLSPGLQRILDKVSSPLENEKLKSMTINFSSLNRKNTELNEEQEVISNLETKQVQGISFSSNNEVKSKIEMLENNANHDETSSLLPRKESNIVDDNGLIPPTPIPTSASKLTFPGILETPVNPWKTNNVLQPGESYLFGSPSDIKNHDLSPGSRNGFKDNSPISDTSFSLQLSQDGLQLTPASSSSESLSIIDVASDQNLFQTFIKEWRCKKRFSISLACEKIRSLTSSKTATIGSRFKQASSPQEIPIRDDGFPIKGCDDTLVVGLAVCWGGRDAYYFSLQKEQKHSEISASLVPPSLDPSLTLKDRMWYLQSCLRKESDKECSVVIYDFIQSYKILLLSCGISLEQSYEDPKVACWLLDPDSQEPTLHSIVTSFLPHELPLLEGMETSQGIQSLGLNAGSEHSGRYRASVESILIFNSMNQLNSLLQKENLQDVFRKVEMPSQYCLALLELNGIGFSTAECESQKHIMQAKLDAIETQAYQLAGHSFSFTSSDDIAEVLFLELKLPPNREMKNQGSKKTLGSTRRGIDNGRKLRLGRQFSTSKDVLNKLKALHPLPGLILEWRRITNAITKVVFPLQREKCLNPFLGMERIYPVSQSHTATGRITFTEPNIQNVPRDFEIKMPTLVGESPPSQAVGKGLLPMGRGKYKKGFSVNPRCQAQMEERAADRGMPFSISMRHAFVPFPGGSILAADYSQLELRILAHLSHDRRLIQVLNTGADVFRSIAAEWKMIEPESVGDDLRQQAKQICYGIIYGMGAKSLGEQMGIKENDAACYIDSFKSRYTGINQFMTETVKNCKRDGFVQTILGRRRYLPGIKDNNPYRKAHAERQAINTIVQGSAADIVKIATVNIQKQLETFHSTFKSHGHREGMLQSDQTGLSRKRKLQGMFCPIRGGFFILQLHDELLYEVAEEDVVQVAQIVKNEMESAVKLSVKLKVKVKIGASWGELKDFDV
For `Cc1cccc(N(C)C(=O)[C@@H]2[C@H](O)[C@H](O)CN2c2nc(C)cc(C(F)(F)F)c2C#N)c1` [Example 54, (2S,3S,4R)-1-(3-Cyano-6-methyl-4-(trifluoromethyl)pyridin-2-yl)-3,4-dihydroxy-N-methyl-N-(m-tolyl)pyrrolidine-2-carboxamide], the midpoint of inhibition, the IC50, lay at 13 nM.
The same measure, in the same setting: in the case of `Cc1cc(C(F)(F)F)cc(N2C(=O)N(CCS(C)(=N)=O)C[C@H]2C(=O)N(C)c2ccc(F)c(Cl)c2F)n1` (stereo partly drawn) [Example 212, (4S)—N-(3-Chloro-2,4-difluorophenyl)-N-methyl-3-(6-methyl-4-(trifluoromethyl)pyridin-2-yl)-1-(2-(S-methylsulfonimidoyl)ethyl)-2-oxoimidazolidine-4-carboxamide] it was 6 nM; in that of `CCN(C(=O)[C@@H]1C[C@H](N)C(=O)N1c1cc(C(F)(F)F)cc(C)n1)c1ccc(F)c(Cl)c1` [Example 61, (2S,4S)-4-Amino-N-(3-chloro-4-fluorophenyl)-N-ethyl-1-(6-methyl-4-(trifluoromethyl)pyridin-2-yl)-5-oxopyrrolidine-2-carboxamide], 136 nM; in that of `CCN(C(=O)[C@@H]1C[C@H](N2CCOC(CO)C2)CN1c1nc(C)cc(C(F)(F)F)c1C#N)c1ccc(C)c(Cl)c1` (stereo partly drawn) [Example 149, (2S,4S)-N-(3-Chloro-4-methylphenyl)-1-(3-cyano-6-methyl-4-(trifluoromethyl)pyridin-2-yl)-N-ethyl-4-(2-(hydroxymethyl)morpholino)pyrrolidine-2-carboxamide], 5 nM.
Still for that read-out and setting: in the case of `Cc1cc(C(F)(F)F)cc(N2C(=O)OC[C@H]2C(=O)N(C)c2ccc(C)c(Cl)c2)n1` [Example 88, (S)-N-(3-Chloro-4-methylphenyl)-N-methyl-3-(6-methyl-4-(trifluoromethyl)pyridin-2-yl)-2-oxooxazolidine-4-carboxamide] it was 6 nM.
On the same count and under the same terms, in the case of `Cc1cc(C)c(C#N)c(N2C[C@@H](O)C[C@H]2C(=O)N(C)c2cccc(CF)c2)n1` [Example 11, (2S,4S)-1-(3-Cyano-4,6-dimethylpyridin-2-yl)-N-(3-(fluoromethyl)phenyl)-4-hydroxy-N-methylpyrrolidine-2-carboxamide] it was 452 nM; in that of `[2H]C([2H])([2H])N(C(=O)[C@@H]1[C@H](O)[C@H](O)C(=O)N1c1cc(C(F)(F)F)cc(C)n1)c1ccc(F)c(Cl)c1F` [Example 162, (2S,3S,4S)—N-(3-Chloro-2,4-difluorophenyl)-3,4-dihydroxy-N-(methyl-d3)-1-(6-methyl-4-(trifluoromethyl)pyridin-2-yl)-5-oxopyrrolidine-2-carboxamide], 3 nM; in that of `Cc1cc(C(F)(F)F)cc(N2C(=O)NC[C@H]2C(=O)N(C)c2ccc3c(F)c[nH]c3n2)n1` [Example 239, (S)—N-(3-Fluoro-1H-pyrrolo[2,3-b]pyridin-6-yl)-N-methyl-3-(6-methyl-4-(trifluoromethyl)pyridin-2-yl)-2-oxoimidazolidine-4-carboxamide], 6 nM.
`Cc1cc(C(F)(F)F)cc(N2C(=O)N(CC3(CO)COC3)C[C@H]2C(=O)N(C)c2ccc(F)c(Cl)c2F)n1` [Example 186, (S)-N-(3-Chloro-2,4-difluoro-phenyl)-1-((3-(hydroxymethyl)-oxetan-3-yl)methyl)-N-methyl-3-(6-methyl-4-(trifluoromethyl)-pyridin-2-yl)-2-oxoimidazolidine-4-carboxamide] showed an IC50 of 9 nM.
In turn, `CCc1cc(N2C[C@@H](O)C[C@H]2C(=O)N(C)c2cccc(C)c2)ncc1C` [Example 35, (2S,4S)-1-(4-Ethyl-5-methylpyridin-2-yl)-4-hydroxy-N-methyl-N-(m-tolyl)pyrrolidine-2-carboxamide] showed an IC50 of 620 nM.
On the same count and under the same terms, the result for `Cc1cc(C(F)(F)F)cc(N2C(=O)OC[C@H]2C(=O)N(C)c2ccc(F)c(Br)c2)n1` [Example 93, (S)-N-(3-Bromo-4-fluorophenyl)-N-methyl-3-(6-methyl-4-(trifluoromethyl)pyridin-2-yl)-2-oxooxazolidine-4-carboxamide] reads 16 nM; that for `Cc1cc(C(F)(F)F)c(C#N)c(N2CCC[C@H]2C(=O)N(C)c2ccc3ccn(C)c3n2)n1` [Example 243, (S)-1-(3-Cyano-6-methyl-4-(trifluoromethyl)pyridin-2-yl)-N-methyl-N-(1-methyl-1H-pyrrolo[2,3-b]pyridin-6-yl)pyrrolidine-2-carboxamide], 39 nM; that for `Cc1cc(C(F)(F)F)cc(N2C(=O)N(CCN3CC[C@@H](O)C3)C[C@H]2C(=O)N(C)c2ccc(F)c(Cl)c2)n1` [Example 197, (S)-N-(3-Chloro-4-fluorophenyl)-1-(2-((R)-3-hydroxypyrrolidin-1-yl)ethyl)-N-methyl-3-(6-methyl-4-(trifluoromethyl)pyridin-2-yl)-2-oxoimidazolidine-4-carboxamide], 19 nM.
Same read-out and setting: the result for `CCN(C(=O)[C@@H]1C[C@H](N(C)[C@@H]2CN(C(=O)OC(C)(C)C)C[C@H]2O)CN1c1cc(C(F)(F)F)cc(C)n1)c1ccc(F)c(F)c1` (racemic) [Example 143, rac-tert-Butyl (3R,4R)-3-(((3S,5S)-5-((3,4-difluorophenyl)(ethyl)carbamoyl)-1-(6-methyl-4-(trifluoromethyl)pyridin-2-yl)pyrrolidin-3-yl)(methyl)amino)-4-hydroxypyrrolidine-1-carboxylate] reads 409 nM; that for `CCN(C(=O)[C@@H]1C[C@H](N(C)[C@H]2CCC[C@H]2O)CN1c1cc(C(F)(F)F)cc(C)n1)c1ccc(F)c(F)c1` [Example 142, (2S,4S)-N-(3,4-Difluorophenyl)-N-ethyl-4-(((1S,2R)-2-hydroxycyclopentyl)(methyl)amino)-1-(6-methyl-4-(trifluoromethyl)pyridin-2-yl)pyrrolidine-2-carboxamide], 160 nM; that for `Cc1cc(C(F)(F)F)cc(N2C(=O)N(CCN3CC(O)C3)C[C@H]2C(=O)N(C)c2ccc(F)c(Cl)c2F)n1` [Example 202, (S)-N-(3-Chloro-2,4-difluorophenyl)-1-(2-(3-hydroxyazetidin-1-yl)ethyl)-N-methyl-3-(6-methyl-4-(trifluoromethyl)pyridin-2-yl)-2-oxoimidazolidine-4-carboxamide], 7 nM.
Take `Cc1cc(C(F)(F)F)cc(N2C(=O)N(CCN3CCC(F)(F)C3)C[C@H]2C(=O)N(C)c2ccc(F)c(Cl)c2F)n1` [Example 206, (S)-N-(3-Chloro-2,4-difluorophenyl)-1-(2-(3,3-difluoropyrrolidin-1-yl)ethyl)-N-methyl-3-(6-methyl-4-(trifluoromethyl)pyridin-2-yl)-2-oxoimidazolidine-4-carboxamide]: the 50% inhibitory concentration (IC50) was 15 nM.
Compound `CCN(C(=O)[C@H]1C[C@@H](N(C)C2CCN(C(C)=O)C2)CN1c1nc(C)cc(C)c1C#N)c1cccc(C)c1` (stereo in doubt) [Example 52, (2R,4R)-4-((1-Acetylpyrrolidin-3-yl)(methyl)amino)-1-(3-cyano-4,6-dimethylpyridin-2-yl)-N-ethyl-N-(m-tolyl)pyrrolidine-2-carboxamide] displayed a half-inhibitory concentration (IC50) of 588 nM.
Same read-out and setting: in the case of `CCN(C(=O)[C@@H]1C[C@H](O)CN1c1nc(C)cc(C)c1C#N)c1cccc(C)c1` [Example 21, (2S,4S)-1-(3-Cyano-4,6-dimethylpyridin-2-yl)-N-ethyl-4-hydroxy-N-(m-tolyl)pyrrolidine-2-carboxamide] it was 77 nM; in that of `CCN(C(=O)[C@H]1C[C@@H](NC)CN1c1nc(C)cc(C)c1C#N)c1cccc(C)c1` (stereo in doubt) [Example 43, (2R,4R)-1-(3-Cyano-4,6-dimethylpyridin-2-yl)-N-ethyl-4-(methylamino)-N-(m-tolyl)-pyrrolidine-2-carboxamide], 221 nM.
Same read-out and setting: the result for `Cc1cc(C(F)(F)F)cc(N2C(=O)N(CCCN3CCNCC3)C[C@H]2C(=O)N(C)c2ccc(F)c(Cl)c2F)n1` [Example 220, (S)—N-(3-Chloro-2,4-difluorophenyl)-N-methyl-3-(6-methyl-4-(trifluoromethyl)pyridin-2-yl)-2-oxo-1-(3-(piperazin-1-yl)propyl)imidazolidine-4-carboxamide] reads 11 nM.
Still for that read-out and setting: in the case of `Cc1cc(C(F)(F)F)cc(N2C(=O)N(CC3(O)CNC3)C[C@H]2C(=O)N(C)c2ccc(F)c(Cl)c2)n1` [Example 225, (S)—N-(3-Chloro-4-fluorophenyl)-1-((3-hydroxyazetidin-3-yl)methyl)-N-methyl-3-(6-methyl-4-(trifluoromethyl)pyridin-2-yl)-2-oxoimidazolidine-4-carboxamide] it was 17 nM.
Turning to `COc1cc(N(C)C(=O)[C@@H]2C[C@H](O)CN2c2nc(C)cc(C(F)(F)F)c2C#N)ccc1F` [Example 16, (2S,4S)-1-(3-Cyano-6-methyl-4-(trifluoromethyl)pyridin-2-yl)-N-(4-fluoro-3-methoxyphenyl)-4-hydroxy-N-methylpyrrolidine-2-carboxamide], half-maximal inhibition (IC50) required 274 nM.
The same measure, in the same setting: the result for `C=Cc1cc(C(F)(F)F)cc(N2C(=O)OC[C@H]2C(=O)N(C)c2ccc(F)c(Cl)c2)n1` [Example 114, (S)—N-(3-Chloro-4-fluorophenyl)-N-methyl-2-oxo-3-(4-(trifluoromethyl)-6-vinylpyridin-2-yl)oxazolidine-4-carboxamide] reads 46 nM.
In turn, `Cc1cc(C(F)(F)F)cc(N2C(=O)N(CC3(O)CCN(C)C3)C[C@H]2C(=O)N(C)c2ccc(F)c(Cl)c2F)n1` (stereo partly drawn) [Example 223, (4S)—N-(3-Chloro-2,4-difluorophenyl)-1-((3-hydroxy-1-methylpyrrolidin-3-yl)methyl)-N-methyl-3-(6-methyl-4-(trifluoromethyl)pyridin-2-yl)-2-oxoimidazolidine-4-carboxamide] came in with an IC50 of 8 nM.

The same assay, now with this note: read-out: Polθ IC50; full length N-His, C-term FLAG tagged Polθ, PicoGreen fluorescence, 12 point concentration response.
`Cc1cc(C(F)(F)F)cc(N2C(=O)OC[C@H]2C(=O)N(C)c2cccc(Cl)c2F)n1` [Example 95, (S)-N-(3-Chloro-2-fluorophenyl)-N-methyl-3-(6-methyl-4-(trifluoromethyl)pyridin-2-yl)-2-oxooxazolidine-4-carboxamide]: the IC50 is 15 nM.
